This assay concerns yeast cells expressing low levels of huntingtin. As to the kind of experiment: Huntingtin toxicity in yeast grown in the presence of an ER stress inducer (FIG. 6B). Format: cell-based. The conditions noted are these: yeast cells grown in the presence of tunicamycin, low levels of huntingtin expressed. The source says:
The unfolded protein response in yeast is depicted in FIG. 6A. […] Conversely, expression of constitutively active IRE1 or HAC (proteins that induce the UPR) ameliorated the toxic effects of high level expression of 103 Q huntingtin in yeast (FIGS. 6D and 6E).

For the substance tunicamycin, the “huntingtin toxicity in yeast cells” value was “enhanced toxicity”.

Values taken from patent publication US8192986B2, “Compositions and methods for treatment of protein misfolding diseases” (Whitehead Institute for Biomedical Research, priority 2004, dated 2012).
